Read-outs that look alike come from different tables or passages of the source.
Columns and labels:
[1] = system: strychnine-induced mortality; details: for type of antagonism of strychnine from slope of dose/mortality line: 100 mg/Kg i.p. pretreatment
Procedure: Strychnine causes muscular convulsions and eventual death through asphyxia or sheer exhaustion in mammals.
Strychnine was administered i.p., dissolved in normal saline at a constant volume of 10 ml/kg. […] The number of deaths was recorded, starting 15 minutes after administration. Using data on deaths at each dose, the LD50, the 95% confidence intervals, and the line slope S were calculated.

GABA receptors = details: cited from earlier work
[2] = system: electroshock-induced convulsions; assay: Electroshock-induced convulsions in rats; assay type: in vivo, rat; details: 30 minutes before shock
Procedure: Male rats were studied using the method described by E. Chojnacka-Wojcik (Pol. J. Pharmacol. Pharm., 35:511-15, 1983), herein incorporated by reference in its entirety.
At 30 minutes after dosing, the animals were given a non-lethal electric shock (50 Hz, 50 mA, impulse train duration 0.2 s via corneal electrodes wetted in normal saline). […] The frequency of tonic and clonic convulsions among the treatment groups was analyzed using the Yates chi-square test .

rat = details: in vivo, ip; cited from earlier work
mouse [3] = details: cited from earlier work
mice = assay: Rota-rod test; assay type: in vivo, mouse; details: 100 mg/Kg, versus untreated mice, FIG. 8A
Text: Motor performance can be tested by measuring the length of time an animal can remain on a slowly rotating cylinder, as in the rota-rod test.

rats [4] = assay: Water maze test; assay type: in vivo, rat; details: 100 mg/Kg
Procedure: The water maze test is designed to test the effect of drugs on learning and performance in a task that is performed under a stressful condition. After several trials under control conditions, rats learn to exit the water maze with greater speed and with fewer errors. Performance in this test can be improved by drugs that either reduce stress and/or enhance learning (e.g. muscarinic agonists). On the contrary, drugs that impair learning (e.g. scopolamine) can worsen performance. […] This indicates improved learning and retention.

mouse [5] = details: intravenous route; cited from earlier work
[6] = system: pentetrazol-induced convulsions; assay: Pentetrazol-induced convulsions in rats; assay type: in vivo, rat; details: for animals manifesting convulsions: 30 minutes before pentetrazol 80 mg/kg i.p.
Procedure: The method proposed by Goodman L. S. et al. (J. Pharmacol. Test Ther. 108:168; 1958) was used. […] After 30 minutes, pentylene tetrazol (80 mg/kg i.p.) was administered. The number of animals from each group who manifested at least one convulsion during the 30 minutes after injection was counted. The differences between treatments were statistically analyzed using the chi-square/Fisher exact test.

[7] = system: bicucullin-induced convulsions; assay: Bicucullin-induced convulsions in rats; assay type: in vivo, rat; details: for animals showing convulsions: 1 hour before bicuculline 4.5 mg/kg i.p., FIG. 4; for protection against convulsions: percent compared with controls
Procedure: The method described by Curtis D. R. et al. (Brain Res. 34:301; 1971), herein incorporated by reference in its entirety, was used in modified form.
One hour later, bicuculline was administered by intraperitoneal route at a dose of 4.5 mg/kg dissolved in 10 ml/kg NSS. The number of animals manifesting any type of convulsion was then counted. The protection conferred by the treatments was then calculated as percent compared with the controls. The statistical significance of the differences was analyzed using the Yates chi-square test.

rats [8] = assay: Open field behavior test; assay type: in vivo, rat
Text: The open-field behavior test relies on the observation that rats exposed to a novel open environment display behaviors (exploratory ambulation, rearing, and dropping fecal boluses) that are thought to be naturally defensive and anticipatory of potential threats in the environment. Pharmacologic interventions that attenuate these behaviors may have utility in modifying pathologic fear or stress responses in a clinical context.

CRH mRNA = details: sustained treatment, hypothalamus and cerebral cortex of rats; cited from earlier work
aged mice = assay: Taut thread test; assay type: in vivo, mouse
Procedure: In this test, aged mice are required to traverse a thread stretched between two points. Performance is measured by the time taken to reach the end and the number of resting positions adopted during the test.

CRH = CRH concentration in hypothalamus and cerebral cortex, foot-shock stress; assay type: in vivo, rat
Text: As mentioned above, stress is known to be associated with release of CRH from the hypothalamus and activation of the HPA axis. This is paralleled by changes in the CRH content of different brain regions and alterations in the expression of messenger RNA (mRNA) for CRH.

[9] = system: isoniazide-induced convulsions; assay: Isoniazide-induced convulsions in rats; assay type: in vivo, rat; details: 1 hour prior to isoniazide 100 mg/kg i.p.
Procedure: The method of Reilly R. H. et al. (JAMA 152(14):1317; 1953), herein incorporated by reference in its entirety, was used in modified form. […] Both the ED50 and ED84 were calculated. In the second part of the test, the ED84 was administered at different times (0.5-1.0-1.5-2.0-3.0 hours) prior to isoniazide administration for the purpose of determining the duration of action and the curve of kinetic activity. Female rats fasted for 17 hours were used for the test.

Cc1ccccc1OCC(O)CO (stereo not drawn) [mephenesine]
type of antagonism of strychnine from slope of dose/mortality line ([1]; mice): competitive antagonism
effect on LD50 of strychnine ([1]; mouse, in vivo): raised the LD50 of strychnine

CC(C)(C)C(=O)NCCCC(=O)O [pivagabine, 4-[(2,2-dimethyl-1-oxopropyl)amino]butanoic acid]
binding to GABA receptors (GABA receptors): does not appear to bind to GABA receptors
number of tonic convulsions in response to electric shock ([2]; 100 or 200 mg/Kg i.p., FIG. 1): significantly reduced
dose up to which no toxic effects were observed (rat): 1 g/kg
anti-depressive and anxiolytic activity (mouse [3]): a certain anti-depressive and anxiolytic activity
time remaining on the rotating cylinder (mice): significantly longer
performance in later sessions (rats [4]; days 4 and 5): tended to be superior to that of controls
time to exit and number of errors made (rats [4]; rats): performed as well as the control group
LD50 (mouse [5]): 1750 mg/kg
animals manifesting convulsions ([6]; 100 mg/kg i.p., p<0.01, FIG. 3): 30%
animals showing convulsions ([7]; 100 mg/kg orally): 4/10
animals showing convulsions ([7]; 200 mg/kg orally): 1/10
protection against convulsions ([7]; high dose 200 mg/kg orally): 90%
number of rearing movements (rats [8]; 50 and 100 mg/Kg i.p., FIG. 6B): significantly reduced
ambulation, number of sectors explored per unit time (rats [8]; FIG. 6A): significant decrease
defecation, number of fecal boluses produced (rats [8]; FIG. 6C): significant decrease
abundance of CRH mRNA (CRH mRNA): increases the abundance of CRH mRNA
effect on LD50 of strychnine ([1]; 100 mg/Kg i.p. 30 minutes prior to strychnine i.p., mice, FIG. 2): raised the LD50 of strychnine
type of antagonism of strychnine from slope of dose/mortality line ([1]; mice): nonspecific antagonism
number of resting positions adopted (aged mice; FIG. 9B): significantly less
time taken to traverse the thread (aged mice; versus control mice, FIG. 9A): significantly faster
effect on CRH concentration in the cerebral cortex (CRH; pivagabine alone (no foot shock), cerebral cortex): no effect
reduction of CRH concentration in the hypothalamus (CRH; pivagabine alone (no foot shock), hypothalamus): 52%
effects of foot-shock stress on CRH concentration (CRH; subchronic treatment, hypothalamus and cerebral cortex, FIGS. 12A and 12B): prevented the effects of foot-shock stress
protection against seizures ([9]; highest dose (oral doses 25-50-100-200 mg/Kg), FIG. 5): 90%
anticonvulsive effect, dose-effect relationship ([9]; oral 25-50-100-200 mg/Kg): dose-related increase

NCCCC(=O)O [GABA]
anticonvulsant effect ([6]; 50 or 100 mg/kg i.p. (either dose), pentetrazol 80 mg/kg i.p.): no anticonvulsant effect
protection against convulsions ([7]; high dose 200 mg/kg orally): 20%
protection against convulsions ([7]; low dose 100 mg/kg orally): 10%

CCC1(c2ccccc2)C(=O)NC(=O)NC1=O [luminal sodium]
tonic and clonic convulsions in response to electric shock ([2]; luminal sodium 10 mg/Kg i.p.): completely blocked
animals manifesting convulsions ([6]; 10 mg/kg i.p.): None
protection against convulsions ([7]; 20 mg/kg orally): 100%

Reference: patent publication US20080280983A1, “METHODS OF TREATING RETT SYNDROME” (CeNeRx BioPharma, priority 2007, published 2008)
